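The compound was tested at five concentrations on cells cultured in 96-well plates, with a 48-hour exposure period. GI50: concentration for 50% inhibition of growth. The concentration for full growth arrest is given as TGI.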
Experiments:
Experiment in all cases: DTP human tumour cell line panel, 48 h
SF-539 CNS = tested on: SF-539 CNS
OVCAR-3 ovarian = tested on: OVCAR-3 ovarian
SN12C renal = tested on: SN12C renal
SK-MEL-5 melanoma = tested on: SK-MEL-5 melanoma
HOP-62 NSCLC = tested on: HOP-62 NSCLC
IGROV1 ovarian = tested on: IGROV1 ovarian
SW-620 colon = tested on: SW-620 colon
OVCAR-4 ovarian = tested on: OVCAR-4 ovarian
UO-31 renal = tested on: UO-31 renal
RXF 393 renal = tested on: RXF 393 renal
NCI-H23 lung = tested on: NCI-H23 lung
BT-549 breast = tested on: BT-549 breast
K-562 leukemia = tested on: K-562 leukemia
SK-MEL-28 melanoma = tested on: SK-MEL-28 melanoma
MDA-MB-435 = tested on: MDA-MB-435
KM12 colon = tested on: KM12 colon
NCI-H226 lung = tested on: NCI-H226 lung
LOX IMVI melanoma = tested on: LOX IMVI melanoma
HS 578T breast = tested on: HS 578T breast
SNB-75 CNS = tested on: SNB-75 CNS
SR leukemia = tested on: SR leukemia
M14 melanoma = tested on: M14 melanoma
A549 NSCLC = tested on: A549 NSCLC
NCI/ADR-RES ovarian = tested on: NCI/ADR-RES ovarian
MOLT-4 leukemia = tested on: MOLT-4 leukemia
SF-295 CNS = tested on: SF-295 CNS
UACC-257 melanoma = tested on: UACC-257 melanoma
OVCAR-8 ovarian = tested on: OVCAR-8 ovarian
MCF7 breast = tested on: MCF7 breast
A498 renal = tested on: A498 renal
U251 CNS = tested on: U251 CNS
OVCAR-5 ovarian = tested on: OVCAR-5 ovarian
TK-10 renal = tested on: TK-10 renal
HCT-116 colon = tested on: HCT-116 colon
T-47D breast = tested on: T-47D breast
HCC-2998 colon = tested on: HCC-2998 colon
HCT-15 colon = tested on: HCT-15 colon
HL-60(TB) leukemia = tested on: HL-60(TB) leukemia
UACC-62 melanoma = tested on: UACC-62 melanoma
HT29 colon = tested on: HT29 colon
SNB-19 CNS = tested on: SNB-19 CNS
CAKI-1 renal = tested on: CAKI-1 renal
EKVX NSCLC = tested on: EKVX NSCLC
NCI-H460 lung = tested on: NCI-H460 lung
CCRF-CEM leukemia = tested on: CCRF-CEM leukemia
SK-OV-3 ovarian = tested on: SK-OV-3 ovarian
MDA-MB-231 breast = tested on: MDA-MB-231 breast
RPMI-8226 leukemia = tested on: RPMI-8226 leukemia
ACHN renal = tested on: ACHN renal
SF-268 CNS = tested on: SF-268 CNS
DU-145 prostate = tested on: DU-145 prostate
SK-MEL-2 melanoma = tested on: SK-MEL-2 melanoma
MALME-3M melanoma = tested on: MALME-3M melanoma
786-0 renal = tested on: 786-0 renal

For `CCS/C(Nc1ccccc1)=C(\C#N)C(=O)N/N=C/c1ccc(Cl)cc1Cl`, which GI50 (SF-539 CNS) is on record?
The GI50 was 2.89 µM.

What about the TGI (SF-539 CNS) of the same compound?
Its TGI is 20.6 µM.

What about the GI50 (OVCAR-3 ovarian) of the same compound?
The GI50 was 2.8 µM.

What about the TGI (OVCAR-3 ovarian) of the same compound?
Its TGI is 10.7 µM.

What about the GI50 (SN12C renal) of the same compound?
Its GI50 is 6.92 µM.

What about the TGI (SN12C renal) of the same compound?
Its TGI is > 100 µM.

What about the GI50 (SK-MEL-5 melanoma) of the same compound?
Its GI50 is 2.28 µM.

What about the TGI (SK-MEL-5 melanoma) of the same compound?
The TGI was 8.53 µM.

What about the GI50 (HOP-62 NSCLC) of the same compound?
The GI50 was 3.66 µM.

What about the TGI (HOP-62 NSCLC) of the same compound?
Its TGI is > 100 µM.

And the GI50 (IGROV1 ovarian)?
The GI50 was 6.46 µM.

What about the TGI (IGROV1 ovarian) of the same compound?
The TGI was > 100 µM.

What about the GI50 (SW-620 colon) of the same compound?
Its GI50 is 4.65 µM.

And the TGI (SW-620 colon)?
Its TGI is > 100 µM.

What about the GI50 (OVCAR-4 ovarian) of the same compound?
Its GI50 is 6.57 µM.

And the TGI (OVCAR-4 ovarian)?
Its TGI is > 100 µM.

What about the GI50 (UO-31 renal) of the same compound?
Its GI50 is 6.91 µM.

What about the TGI (UO-31 renal) of the same compound?
Its TGI is > 100 µM.

And the GI50 (RXF 393 renal)?
The GI50 was 2.06 µM.

What about the TGI (RXF 393 renal) of the same compound?
The TGI was 8.66 µM.

And the GI50 (NCI-H23 lung)?
Its GI50 is 6.47 µM.

And the TGI (NCI-H23 lung)?
Its TGI is > 100 µM.

And the GI50 (BT-549 breast)?
Its GI50 is 2.8 µM.

And the TGI (BT-549 breast)?
Its TGI is > 100 µM.

What about the GI50 (K-562 leukemia) of the same compound?
Its GI50 is 0.855 µM.

And the TGI (K-562 leukemia)?
Its TGI is > 100 µM.

What about the GI50 (SK-MEL-28 melanoma) of the same compound?
Its GI50 is 23.6 µM.

What about the TGI (SK-MEL-28 melanoma) of the same compound?
Its TGI is > 100 µM.

And the GI50 (MDA-MB-435)?
Its GI50 is 0.419 µM.

And the TGI (MDA-MB-435)?
The TGI was 2.23 µM.

And the GI50 (KM12 colon)?
Its GI50 is 4.04 µM.

And the TGI (KM12 colon)?
The TGI was > 100 µM.

And the GI50 (NCI-H226 lung)?
The GI50 was 4 µM.

What about the TGI (NCI-H226 lung) of the same compound?
Its TGI is > 100 µM.

What about the GI50 (LOX IMVI melanoma) of the same compound?
Its GI50 is 5.88 µM.

What about the TGI (LOX IMVI melanoma) of the same compound?
The TGI was > 100 µM.

And the GI50 (HS 578T breast)?
Its GI50 is 2.74 µM.

What about the TGI (HS 578T breast) of the same compound?
Its TGI is 98.7 µM.

And the GI50 (SNB-75 CNS)?
Its GI50 is 2.15 µM.

And the TGI (SNB-75 CNS)?
The TGI was 9.37 µM.

What about the GI50 (SR leukemia) of the same compound?
The GI50 was 3.45 µM.

What about the TGI (SR leukemia) of the same compound?
The TGI was > 100 µM.

What about the GI50 (M14 melanoma) of the same compound?
Its GI50 is 2.01 µM.

What about the TGI (M14 melanoma) of the same compound?
The TGI was 9.61 µM.

What about the GI50 (A549 NSCLC) of the same compound?
The GI50 was 4.63 µM.

What about the TGI (A549 NSCLC) of the same compound?
Its TGI is > 100 µM.

And the GI50 (NCI/ADR-RES ovarian)?
Its GI50 is 3.16 µM.

And the TGI (NCI/ADR-RES ovarian)?
The TGI was > 100 µM.

And the GI50 (MOLT-4 leukemia)?
The GI50 was 3.48 µM.

What about the TGI (MOLT-4 leukemia) of the same compound?
The TGI was > 100 µM.

What about the GI50 (SF-295 CNS) of the same compound?
The GI50 was 2.89 µM.

And the TGI (SF-295 CNS)?
Its TGI is > 100 µM.

What about the GI50 (UACC-257 melanoma) of the same compound?
The GI50 was 25.7 µM.

What about the TGI (UACC-257 melanoma) of the same compound?
The TGI was > 100 µM.

What about the GI50 (OVCAR-8 ovarian) of the same compound?
Its GI50 is 4.81 µM.

What about the TGI (OVCAR-8 ovarian) of the same compound?
The TGI was > 100 µM.

And the GI50 (MCF7 breast)?
Its GI50 is 2.99 µM.

And the TGI (MCF7 breast)?
The TGI was > 100 µM.

What about the GI50 (A498 renal) of the same compound?
The GI50 was 1.87 µM.

And the TGI (A498 renal)?
Its TGI is 37.8 µM.

What about the GI50 (U251 CNS) of the same compound?
Its GI50 is 3.95 µM.

What about the TGI (U251 CNS) of the same compound?
The TGI was > 100 µM.

And the GI50 (OVCAR-5 ovarian)?
The GI50 was 8.25 µM.

And the TGI (OVCAR-5 ovarian)?
Its TGI is > 100 µM.

What about the GI50 (TK-10 renal) of the same compound?
Its GI50 is 10.2 µM.

And the TGI (TK-10 renal)?
Its TGI is > 100 µM.

And the GI50 (HCT-116 colon)?
The GI50 was 2.99 µM.

What about the TGI (HCT-116 colon) of the same compound?
Its TGI is > 100 µM.

What about the GI50 (T-47D breast) of the same compound?
The GI50 was 4.03 µM.

What about the TGI (T-47D breast) of the same compound?
The TGI was > 100 µM.

And the GI50 (HCC-2998 colon)?
The GI50 was 5.47 µM.

What about the TGI (HCC-2998 colon) of the same compound?
The TGI was > 100 µM.

What about the GI50 (HCT-15 colon) of the same compound?
Its GI50 is 2.9 µM.

And the TGI (HCT-15 colon)?
Its TGI is > 100 µM.

What about the GI50 (HL-60(TB) leukemia) of the same compound?
The GI50 was 3.2 µM.

And the TGI (HL-60(TB) leukemia)?
Its TGI is > 100 µM.

And the GI50 (UACC-62 melanoma)?
Its GI50 is 2.74 µM.

And the TGI (UACC-62 melanoma)?
The TGI was > 100 µM.

What about the GI50 (HT29 colon) of the same compound?
The GI50 was 3.7 µM.

And the TGI (HT29 colon)?
Its TGI is > 100 µM.

And the GI50 (SNB-19 CNS)?
Its GI50 is 4.17 µM.

And the TGI (SNB-19 CNS)?
The TGI was > 100 µM.

And the GI50 (CAKI-1 renal)?
The GI50 was 2.39 µM.

And the TGI (CAKI-1 renal)?
The TGI was > 100 µM.

What about the GI50 (EKVX NSCLC) of the same compound?
The GI50 was 5.09 µM.

What about the TGI (EKVX NSCLC) of the same compound?
Its TGI is > 100 µM.

And the GI50 (NCI-H460 lung)?
Its GI50 is 3.16 µM.

What about the TGI (NCI-H460 lung) of the same compound?
The TGI was > 100 µM.

What about the GI50 (CCRF-CEM leukemia) of the same compound?
The GI50 was 3.07 µM.

And the TGI (CCRF-CEM leukemia)?
Its TGI is > 100 µM.

What about the GI50 (SK-OV-3 ovarian) of the same compound?
Its GI50 is 3.72 µM.

What about the TGI (SK-OV-3 ovarian) of the same compound?
The TGI was > 100 µM.

And the GI50 (MDA-MB-231 breast)?
The GI50 was 4.75 µM.

And the TGI (MDA-MB-231 breast)?
The TGI was > 100 µM.

And the GI50 (RPMI-8226 leukemia)?
Its GI50 is 3.68 µM.

And the TGI (RPMI-8226 leukemia)?
Its TGI is > 100 µM.

And the GI50 (ACHN renal)?
Its GI50 is 7.08 µM.

What about the TGI (ACHN renal) of the same compound?
Its TGI is > 100 µM.

What about the GI50 (SF-268 CNS) of the same compound?
Its GI50 is 6.58 µM.

What about the TGI (SF-268 CNS) of the same compound?
The TGI was > 100 µM.

And the GI50 (DU-145 prostate)?
The GI50 was 3.57 µM.

And the TGI (DU-145 prostate)?
Its TGI is > 100 µM.

And the GI50 (SK-MEL-2 melanoma)?
The GI50 was 3.24 µM.

And the TGI (SK-MEL-2 melanoma)?
The TGI was 43.6 µM.

What about the GI50 (MALME-3M melanoma) of the same compound?
Its GI50 is 9.3 µM.

And the TGI (MALME-3M melanoma)?
Its TGI is > 100 µM.

What about the GI50 (786-0 renal) of the same compound?
The GI50 was 3.5 µM.

What about the TGI (786-0 renal) of the same compound?
The TGI was > 100 µM.

Reference: PubChem BioAssay (NCI)
